Measured values from paper PMC6934184, “Selective DNA-PKcs inhibition extends the therapeutic index of localized radiotherapy and chemotherapy” (The Journal of Clinical Investigation, 2019).

Molecular target: T1, PI4KA (PI4K alpha) (Homo sapiens, UniProt P42356)
T1 construct: purchased Thermo Fisher Scientific (Life Technologies) SelectScreen
Experiment: SelectScreen Adapta
Type: biochemical
Conditions: ATP 10 µM
Procedure: The in vitro kinase selectivity of NU5455 was determined using the SelectScreen Broad Assay Panel (Thermo Fisher Scientific) involving activity and binding assays (Supplemental Table 1). […] Class IA PI3Ks were measured using the p85α subunit.
Kinase [ATP] % Assay Kinase [ATP] % Assay Kinase [ATP] % Assay Kinase [ATP] % Assay […]
SGK (SGK1) Km app 8.5 Z MAP4K2 (GCK) Km app 2.7 Z TLK2 n/a -0.3 L STK38 (NDR) n/a -5.9 L
MERTK (cMER) Km app 8.3 Z CDK2/cyclin A Km app 2.7 Z TGFBR1 (ALK5) n/a -0.4 L MATK (HYL) Km app -6.3 Z
FYN Km app 8.3 Z EPHA1 Km app 2.7 Z CLK3 Km app -0.5 Z ABL1 E255K Km app -6.6 Z
TEC n/a 8.1 L CDK2/cyclin E1 n/a 2.7 L MAP3K14 (NIK) n/a -0.5 L STK17A (DRAK1) n/a -6.6 L
KIT V654A n/a 8.1 L TESK2 n/a 2.7 L AKT3 (PKB gamma) Km app -0.5 Z JAK2 JH1 JH2 Km app -6.7 Z
ROS1 Km app 8.0 Z SPHK1 Km app 2.7 A MAP3K9 (MLK1) Km app -0.5 Z PRKACB (PRKAC beta) n/a -6.8 L
FGFR3 K650E Km app 7.9 Z AMPK A2/B1/G1 Km app 2.6 Z IKBKB (IKK beta) Km app -0.6 Z PDGFRA (PDGFR alpha) Km app -6.8 Z
RAF1 (cRAF) Y340D Y341D 100 7.9 Z DYRK3 Km app 2.6 Z CAMK2A (CaMKII alpha) Km app -0.6 Z NEK9 Km app -7.2 Z
PI4KA (PI4K alpha) 10 7.8 A CSNK1D (CK1 delta) Km app 2.6 Z PRKCB1 (PKC beta I) Km app -0.7 Z PDK1 Km app -7.3 Z
HIPK2 Km app 7.8 Z ACVR2A n/a 2.5 L TTK n/a -0.7 L RPS6KB1 (p70S6K) Km app -7.8 Z
CSK Km app 7.6 Z DDR2 T654M n/a 2.5 L ZAK n/a -0.7 L STK38L (NDR2) n/a -8.4 L
PRKCG (PKC gamma) Km app 7.6 Z JAK2 Km app 2.5 Z IKBKE (IKK epsilon) Km app -0.7 Z ABL1 G250E Km app -8.5 Z
SRMS (Srm) Km app 7.5 Z HIPK3 (YAK1) Km app 2.5 Z CAMK2G (CaMKII gamma) n/a -0.8 L PRKD1 (PKC mu) Km app -8.5 Z
YES1 Km app 7.4 Z AMPK (A1/B1/G2) n/a 2.4 L TLK1 n/a -0.8 L CDK5/p35 Km app -8.6 Z
RPS6KA5 (MSK1) Km app 7.4 Z MYO3B (MYO3 beta) n/a 2.3 L MAPK12 (p38 gamma) Km app -0.8 Z PDGFRA T674I Km app -8.9 Z
TNIK n/a 7.3 L PASK Km app 2.3 Z PRKCI (PKC iota) Km app -0.8 Z BLK Km app -8.9 Z
FER Km app 7.1 Z ACVRL1 (ALK1) n/a 2.3 L PKN2 (PRK2) n/a -1.0 L PRKD2 (PKD2) Km app -9.1 Z
CDK16 (PCTK1)/cyclin Y n/a 7.0 L EGFR (ErbB1) L861Q Km app 2.2 Z PIM1 Km app -1.0 Z CSNK1G2 (CK1 gamma 2) Km app -9.3 Z
MST4 Km app 6.9 Z RPS6KA3 (RSK2) Km app 2.1 Z CDK5/p25 Km app -1.1 Z ROCK1 Km app -9.5 Z
FLT1 (VEGFR1) Km app 6.5 Z STK23 (MSSK1) Km app 2.0 Z SRPK1 Km app -1.1 Z PRKCB2 (PKC beta II) Km app -9.6 Z
DYRK1A Km app 6.4 Z ALK R1275Q n/a 2.0 L BRSK1 (SAD1) Km app -1.1 Z CSNK1G1 (CK1 gamma 1) Km app -9.9 Z
PRKCD (PKC delta) Km app 6.2 Z TBK1 Km app 2.0 Z MAP3K3 (MEKK3) n/a -1.1 L ABL2 (Arg) Km app -10.3 Z
EGFR (ErbB1) Km app 6.0 Z ACVR1B (ALK4) Km app 2.0 Z AMPK A1/B1/G1 Km app -1.2 Z STK3 (MST2) Km app -10.3 Z
CDC7/DBF4 n/a 6.0 L CDK3/cyclin E1 n/a 1.9 L WNK3 n/a -1.2 L CAMK4 (CaMKIV) Km app -10.4 Z
JAK3 Km app 6.0 Z KDR (VEGFR2) Km app 1.8 Z LATS1 n/a -1.3 L MKNK1 (MNK1) Km app -10.7 Z
MAPK13 (p38 delta) Km app 5.8 Z ULK1 n/a 1.8 L DMPK n/a -1.5 L FLT3 ITD n/a -11.6 L
FRAP1 (mTOR) Km app 5.7 Z AURKB (Aurora B) Km app 1.7 Z CDK2/cyclin A1 n/a -1.6 L CHEK2 (CHK2) Km app -11.7 Z
KIT Y823D n/a 5.6 L LRRK2 Km app 1.7 A LIMK1 n/a -1.7 L LTK (TYK1) Km app -13.1 Z
ITK Km app 5.5 Z MAP2K3 (MEK3) n/a 1.6 L DYRK1B Km app -1.8 Z JAK2 JH1 JH2 V617F Km app -13.8 Z
KIT Km app 5.3 Z DAPK1 Km app 1.6 A DDR1 n/a -1.8 L EPHA8 Km app -13.8 Z
CDK7/cyclin H/MNAT1 Km app 5.3 A EPHA6 n/a 1.6 L BTK Km app -2.0 Z EGFR (ErbB1) T790M L858R Km app -14.1 Z
RET Km app 5.2 Z MAP4K1 (HPK1) n/a 1.6 L ADRBK1 (GRK2) Km app -2.0 Z MET M1250T Km app -14.5 Z […]

T1 sequence (P42356 whole entry): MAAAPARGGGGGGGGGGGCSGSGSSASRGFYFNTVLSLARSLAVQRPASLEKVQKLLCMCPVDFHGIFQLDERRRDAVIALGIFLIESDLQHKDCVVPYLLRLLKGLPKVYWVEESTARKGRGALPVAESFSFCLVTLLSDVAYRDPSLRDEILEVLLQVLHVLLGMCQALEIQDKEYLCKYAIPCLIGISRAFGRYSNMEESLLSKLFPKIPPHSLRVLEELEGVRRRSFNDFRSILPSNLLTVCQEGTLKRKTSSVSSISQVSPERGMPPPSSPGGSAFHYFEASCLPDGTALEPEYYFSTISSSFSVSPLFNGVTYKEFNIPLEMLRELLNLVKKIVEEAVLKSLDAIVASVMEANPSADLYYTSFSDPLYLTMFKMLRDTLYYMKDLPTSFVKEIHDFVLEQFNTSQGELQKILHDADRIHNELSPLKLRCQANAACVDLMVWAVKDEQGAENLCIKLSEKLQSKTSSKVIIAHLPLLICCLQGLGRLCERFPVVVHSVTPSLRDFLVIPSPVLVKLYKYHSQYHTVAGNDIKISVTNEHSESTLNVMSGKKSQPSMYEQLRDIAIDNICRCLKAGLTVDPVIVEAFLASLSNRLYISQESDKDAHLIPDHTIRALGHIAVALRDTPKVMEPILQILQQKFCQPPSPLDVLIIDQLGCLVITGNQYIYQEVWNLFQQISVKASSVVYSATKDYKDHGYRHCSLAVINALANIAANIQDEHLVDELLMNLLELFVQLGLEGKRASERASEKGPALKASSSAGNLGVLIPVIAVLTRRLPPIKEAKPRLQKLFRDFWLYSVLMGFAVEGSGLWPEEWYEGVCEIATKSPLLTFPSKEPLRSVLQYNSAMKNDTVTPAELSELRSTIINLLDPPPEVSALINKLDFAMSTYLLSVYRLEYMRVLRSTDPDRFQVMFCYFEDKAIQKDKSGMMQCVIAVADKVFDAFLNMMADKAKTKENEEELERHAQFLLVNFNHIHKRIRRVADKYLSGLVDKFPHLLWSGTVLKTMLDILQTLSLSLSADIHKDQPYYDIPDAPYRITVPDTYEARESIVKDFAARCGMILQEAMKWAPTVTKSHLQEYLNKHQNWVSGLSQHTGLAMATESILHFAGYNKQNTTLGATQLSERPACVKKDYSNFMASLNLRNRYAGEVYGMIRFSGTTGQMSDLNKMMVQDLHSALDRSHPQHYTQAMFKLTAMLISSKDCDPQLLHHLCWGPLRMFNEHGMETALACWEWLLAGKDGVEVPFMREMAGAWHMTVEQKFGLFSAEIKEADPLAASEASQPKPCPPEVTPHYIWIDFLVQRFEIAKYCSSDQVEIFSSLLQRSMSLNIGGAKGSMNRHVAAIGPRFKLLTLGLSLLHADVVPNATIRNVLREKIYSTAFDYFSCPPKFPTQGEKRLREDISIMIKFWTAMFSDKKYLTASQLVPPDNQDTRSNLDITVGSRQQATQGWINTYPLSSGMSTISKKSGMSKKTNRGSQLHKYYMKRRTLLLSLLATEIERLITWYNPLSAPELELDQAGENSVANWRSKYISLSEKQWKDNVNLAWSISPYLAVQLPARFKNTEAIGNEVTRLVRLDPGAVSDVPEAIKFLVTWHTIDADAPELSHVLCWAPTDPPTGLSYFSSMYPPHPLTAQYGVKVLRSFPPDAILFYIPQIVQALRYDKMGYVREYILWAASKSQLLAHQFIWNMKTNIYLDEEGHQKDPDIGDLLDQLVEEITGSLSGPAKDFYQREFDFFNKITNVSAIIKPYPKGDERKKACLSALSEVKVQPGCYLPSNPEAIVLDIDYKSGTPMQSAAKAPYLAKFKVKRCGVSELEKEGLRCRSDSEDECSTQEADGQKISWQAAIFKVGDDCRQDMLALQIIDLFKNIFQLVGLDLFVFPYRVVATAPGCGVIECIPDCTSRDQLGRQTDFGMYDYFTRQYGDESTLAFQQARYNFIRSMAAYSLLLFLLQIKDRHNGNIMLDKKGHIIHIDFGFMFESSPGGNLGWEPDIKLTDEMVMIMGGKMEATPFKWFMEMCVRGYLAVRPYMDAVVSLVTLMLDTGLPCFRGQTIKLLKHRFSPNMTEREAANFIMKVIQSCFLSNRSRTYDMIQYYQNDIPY

Question: For `CN(C(=O)CN1CCOCC1)c1ccc2sc3c(-c4cccc5c(=O)cc(N6CC7CCC(C6)O7)oc45)cccc3c2c1` [NU5455], which inhibition at 1 µM is on record?
Answer: 7.8%
